Values after ≈ are worked out from the molar mass of the structure shown.
Experiments:
Assay type in all cases: functional
[1] = test system: Enterobacter cloacae; experiment: Antibacterial activity against VIM-1 producing Enterobacter cloacae isolate TO-16X-51 by Etest method
[2] = test system: Pseudomonas putida; experiment: Antibacterial activity against VIM-1 producing Pseudomonas putida isolate RM-11X-11 by Etest method
[3] = test system: Pseudomonas aeruginosa; experiment: Antibacterial activity against VIM-1 producing Pseudomonas aeruginosa clone A1 isolate FG-17X-14 by Etest method
[4] = test system: Pseudomonas aeruginosa; experiment: Antibacterial activity against VIM-1 producing Pseudomonas aeruginosa clone A2 isolate NA-14X-21 by Etest method
[5] = test system: Pseudomonas aeruginosa; experiment: Antibacterial activity against VIM-1 producing Pseudomonas aeruginosa clone A2 isolate NA-14X-26 by Etest method
[6] = test system: Pseudomonas aeruginosa; experiment: Antibacterial activity against VIM-1 producing Pseudomonas aeruginosa clone A2 isolate NA-14X-32 by Etest method
[7] = test system: Pseudomonas aeruginosa; experiment: Antibacterial activity against VIM-1 producing Pseudomonas aeruginosa clone A3 isolate NA-14X-34 by Etest method
[8] = test system: Pseudomonas aeruginosa; experiment: Antibacterial activity against VIM-1 producing Pseudomonas aeruginosa clone A3 isolate FG-17X-08 by Etest method
[9] = test system: Pseudomonas aeruginosa; experiment: Antibacterial activity against VIM-1 producing Pseudomonas aeruginosa clone D isolate VA-06X-69 by Etest method
[10] = test system: Pseudomonas aeruginosa; experiment: Antibacterial activity against VIM-1 producing Pseudomonas aeruginosa clone D1 isolate VA-06X-63 by Etest method
[11] = test system: Pseudomonas aeruginosa; experiment: Antibacterial activity against VIM-1 producing Pseudomonas aeruginosa clone D2 isolate VA-06X-16 by Etest method
[12] = test system: Pseudomonas aeruginosa; experiment: Antibacterial activity against VIM-1 producing Pseudomonas aeruginosa clone D2 isolate VA-06X-17 by Etest method
[13] = test system: Pseudomonas aeruginosa; experiment: Antibacterial activity against VIM-1 producing Pseudomonas aeruginosa clone D3 isolate VA-06X-65 by Etest method
[14] = test system: Pseudomonas aeruginosa; experiment: Antibacterial activity against VIM-1 producing Pseudomonas aeruginosa clone D4 isolate VA-06X-47 by Etest method
[15] = test system: Pseudomonas aeruginosa; experiment: Antibacterial activity against VIM-1 producing Pseudomonas aeruginosa clone E isolate VA-06X-29 by Etest method
[16] = test system: Pseudomonas aeruginosa; experiment: Antibacterial activity against VIM-1 producing Pseudomonas aeruginosa clone F isolate RM-11X-09 by Etest method
[17] = test system: Pseudomonas aeruginosa; experiment: Antibacterial activity against VIM-1 producing Pseudomonas aeruginosa clone G isolate NA-14X-13 by Etest method
[18] = test system: Pseudomonas aeruginosa; experiment: Antibacterial activity against VIM-2 producing Pseudomonas aeruginosa clone B1 isolate SS-09X-45 by Etest method
[19] = test system: Pseudomonas aeruginosa; experiment: Antibacterial activity against VIM-2 producing Pseudomonas aeruginosa clone B2 isolate VA-06X-20 by Etest method
[20] = test system: Pseudomonas aeruginosa; experiment: Antibacterial activity against VIM-2 producing Pseudomonas aeruginosa clone B2 isolate VA-06X-28 by Etest method
[21] = test system: Pseudomonas aeruginosa; experiment: Antibacterial activity against VIM-2 producing Pseudomonas aeruginosa clone B2 isolate VA-06X-38 by Etest method
[22] = test system: Pseudomonas aeruginosa; experiment: Antibacterial activity against VIM-2 producing Pseudomonas aeruginosa clone B3 isolate CR-04X-14 by Etest method
[23] = test system: Pseudomonas aeruginosa; experiment: Antibacterial activity against VIM-2 producing Pseudomonas aeruginosa clone B3 isolate PV-05X-02 by Etest method
[24] = test system: Pseudomonas aeruginosa; experiment: Antibacterial activity against VIM-2 producing Pseudomonas aeruginosa clone B3 isolate PV-05X-07 by Etest method
[25] = test system: Pseudomonas aeruginosa; experiment: Antibacterial activity against IMP-13 producing Pseudomonas aeruginosa clone C1 isolate AV-13X-28 by Etest method
[26] = test system: Pseudomonas aeruginosa; experiment: Antibacterial activity against IMP-13 producing Pseudomonas aeruginosa clone C2 isolate NA-14X-02 by Etest method
[27] = test system: Pseudomonas aeruginosa; experiment: Antibacterial activity against IMP-13 producing Pseudomonas aeruginosa clone C2 isolate NA-14X-10 by Etest method
[28] = test system: Pseudomonas aeruginosa; experiment: Antibacterial activity against IMP-13 producing Pseudomonas aeruginosa clone C2 isolate NA-14X-11 by Etest method
[29] = test system: Pseudomonas aeruginosa; experiment: Antibacterial activity against IMP-13 producing Pseudomonas aeruginosa clone C2 isolate NA-14X-12 by Etest method
[30] = test system: Pseudomonas aeruginosa; experiment: Antibacterial activity against IMP-13 producing Pseudomonas aeruginosa clone C3 isolate PG-12X-03 by Etest method
[31] = test system: Pseudomonas aeruginosa; experiment: Antibacterial activity against metallo-beta-lactamase positive Pseudomonas aeruginosa assessed as percent susceptible isolates by Etest method

Row | Compound | MIC [1] [µg/mL] | MIC [2] [µg/mL] | MIC [3] [µg/mL] | MIC [4] [µg/mL] | MIC [5] [µg/mL] | MIC [6] [µg/mL] | MIC [7] [µg/mL] | MIC [8] [µg/mL] | MIC [9] [µg/mL] | MIC [10] [µg/mL] | MIC [11] [µg/mL] | MIC [12] [µg/mL] | MIC [13] [µg/mL] | MIC [14] [µg/mL] | MIC [15] [µg/mL] | MIC [16] [µg/mL] | MIC [17] [µg/mL] | MIC [18] [µg/mL] | MIC [19] [µg/mL] | MIC [20] [µg/mL] | also measured
1 | NCC[C@H](O)C(=O)N[C@@H]1C[C@H](N)[C@@H](O[C@H]2O[C@H](CN)[C@@H](O)[C@H](O)[C@H]2O)[C@H](O)[C@H]1O[C@H]1O[C@H](CO)[C@@H](O)[C@H](N)[C@H]1O [AMIKACIN] | 24 (≈ 41 µM) | 1 (≈ 1.71 µM) | 8 (≈ 13.7 µM) | 24 (≈ 41 µM) | 32 (≈ 54.6 µM) | 24 (≈ 41 µM) | 24 (≈ 41 µM) | 16 (≈ 27.3 µM) | 8 (≈ 13.7 µM) | 8 (≈ 13.7 µM) | 8 (≈ 13.7 µM) | 8 (≈ 13.7 µM) | 8 (≈ 13.7 µM) | 8 (≈ 13.7 µM) | > 128 | 8 (≈ 13.7 µM) | > 128 | > 128 | > 128 | > 128 | MIC [21]: > 128 µg/mL; MIC [22]: > 128 µg/mL; MIC [23]: > 128 µg/mL; MIC [24]: > 128 µg/mL; MIC [25]: 8 µg/mL (≈ 13.7 µM); MIC [26]: 16 µg/mL (≈ 27.3 µM); MIC [27]: 16 µg/mL (≈ 27.3 µM); MIC [28]: 16 µg/mL (≈ 27.3 µM); MIC [29]: 16 µg/mL (≈ 27.3 µM); MIC [30]: > 128 µg/mL; Activity [31]: 50%
2 | C[C@H]1[C@H](NC(=O)/C(=N\OC(C)(C)C(=O)O)c2csc(N)n2)C(=O)N1S(=O)(=O)O [AZTREONAM] |  | 8 (≈ 18.4 µM) |  |  |  |  |  |  |  |  |  |  |  |  |  |  |  |  |  |  | Activity [31]: 75%
3 | CC(C)(O/N=C(\C(=O)N[C@@H]1C(=O)N2C(C(=O)[O-])=C(C[n+]3ccccc3)CS[C@H]12)c1csc(N)n1)C(=O)O [CEFTAZIDIME] | > 128 | > 128 | > 128 | > 128 | > 128 | > 128 | > 128 | > 128 | > 128 | > 128 | > 128 | > 128 | > 128 | > 128 | > 128 | > 128 | > 128 | > 128 | 64 (≈ 117 µM) | 64 (≈ 117 µM) | MIC [21]: 48 µg/mL (≈ 87.8 µM); MIC [22]: 64 µg/mL (≈ 117 µM); MIC [23]: 32 µg/mL (≈ 58.5 µM); MIC [24]: 32 µg/mL (≈ 58.5 µM); MIC [25]: > 128 µg/mL; MIC [26]: > 128 µg/mL; MIC [27]: > 128 µg/mL; MIC [28]: > 128 µg/mL; MIC [29]: > 128 µg/mL; MIC [30]: > 128 µg/mL
4 | O=C(O)c1cn(C2CC2)c2cc(N3CCNCC3)c(F)cc2c1=O [CIPROFLOXACIN] |  | 0.06 (≈ 0.181 µM) |  |  |  |  |  |  |  |  |  |  |  |  |  |  |  |  |  |  | 
5 | C[C@H]1COc2c(N3CCN(C)CC3)c(F)cc3c(=O)c(C(=O)O)cn1c23.C[C@H]1COc2c(N3CCN(C)CC3)c(F)cc3c(=O)c(C(=O)O)cn1c23.O [LEVOFLOXACIN] | > 32 | 0.25 | > 32 | > 32 | > 32 | > 32 | > 32 | > 32 | > 32 | > 32 | > 32 | > 32 | > 32 | > 32 | > 32 | > 32 | > 32 | > 32 | > 32 | > 32 | MIC [21]: > 32 µg/mL; MIC [22]: > 32 µg/mL; MIC [23]: > 32 µg/mL; MIC [24]: > 32 µg/mL; MIC [25]: > 32 µg/mL; MIC [26]: > 32 µg/mL; MIC [27]: > 32 µg/mL; MIC [28]: > 32 µg/mL; MIC [29]: > 32 µg/mL; MIC [30]: > 32 µg/mL
6 | C[C@@H](O)[C@H]1C(=O)N2C(C(=O)O)=C(S[C@@H]3CN[C@H](C(=O)N(C)C)C3)[C@H](C)[C@H]12 [MEROPENEM] | 2 (≈ 5.22 µM) | > 32 | > 32 | > 32 | > 32 | > 32 | > 32 | > 32 | > 32 | > 32 | > 32 | > 32 | > 32 | > 32 | > 32 | > 32 | > 32 | > 32 | > 32 | > 32 | MIC [21]: > 32 µg/mL; MIC [22]: > 32 µg/mL; MIC [23]: 8 µg/mL (≈ 20.9 µM); MIC [24]: 8 µg/mL (≈ 20.9 µM); MIC [25]: 8 µg/mL (≈ 20.9 µM); MIC [26]: > 32 µg/mL; MIC [27]: > 32 µg/mL; MIC [28]: > 32 µg/mL; MIC [29]: > 32 µg/mL; MIC [30]: > 32 µg/mL
7 | COLISTIN | 0.25 | 0.25 | 1 | 2 | 2 | 2 | 2 | 0.5 | 1 | 1 | 1 | 1 | 0.5 | 1 | 2 | 1 | 2 | 2 | 1 | 1 | MIC [21]: 1 µg/mL; MIC [22]: 2 µg/mL; MIC [23]: 1 µg/mL; MIC [24]: 1 µg/mL; MIC [25]: 2 µg/mL; MIC [26]: 0.5 µg/mL; MIC [27]: 0.5 µg/mL; MIC [28]: 0.5 µg/mL; MIC [29]: 0.5 µg/mL; MIC [30]: 0.5 µg/mL
8 | GENTAMICIN | 2 | 4 | > 128 | > 128 | > 128 | > 128 | > 128 | > 128 | > 128 | > 128 | > 128 | > 128 | > 128 | > 128 | > 128 | > 128 | > 128 | > 128 | 8 | 8 | MIC [21]: 8 µg/mL; MIC [22]: 8 µg/mL; MIC [23]: 8 µg/mL; MIC [24]: 8 µg/mL; MIC [25]: > 128 µg/mL; MIC [26]: > 128 µg/mL; MIC [27]: > 128 µg/mL; MIC [28]: > 128 µg/mL; MIC [29]: > 128 µg/mL; MIC [30]: > 128 µg/mL
